Data reported in patent publication US11061034B2, “Blood biomarker for use in evaluation of effect of drug therapy on kidney cancer” (PUBLIC UNIVERSITY CORPORATION YOKOHAMA CITY UNIVERSITY, priority 2015, dated 2021).

System: kidney cancer
Test: Kidney cancer activity by FDG PET/CT during mTOR inhibitor therapy
Type: in vivo, human
Method: A change in blood PARK7 concentration was observed during treatment in four patients with kidney cancer who began to receive administration of mTOR inhibitor. The blood PARK7 concentration was measured as a concentration of plasma PARK7 with the commercially available ELISA kit in the same manner as in 1, described above, and the change in blood PARK7 level was evaluated by comparing values detected by a luminometer. The therapeutic effect of the mTOR inhibitor was clinically evaluated by FDG PET/CT. Kidney cancer progression was evaluated by FDG PET/CT, in parallel with the measurement of blood PARK7 concentration. FDG is an agent composed of glucose and a positron-emitting nuclide introduced thereto, and it has almost the same behavior in the body as glucose. […] The SUVmax values indicated below the respective images are semi-quantified values of FDG accumulation.

SMILES: CO[C@H]1C[C@@H]2CC[C@@H](C)[C@@](O)(O2)C(=O)C(=O)N2CCCC[C@H]2C(=O)O[C@H]([C@H](C)C[C@@H]2CC[C@@H](OC(=O)C(C)(CO)CO)[C@H](OC)C2)CC(=O)[C@H](C)/C=C(\C)[C@@H](O)[C@@H](OC)C(=O)[C@H](C)C[C@H](C)/C=C/C=C/C=C/1C [Temsirolimus]
- accumulation of FDG (PET/CT) (patient with kidney cancer, Case No. 4 (one case)): no change in accumulation of FDG
- accumulation of FDG (PET/CT) (patients with kidney cancer, Case Nos. 1 to 3 (three cases)): decreased accumulation of FDG
